Test results published in patent publication US10472369B2, “Crystalline forms of (6-(1H-indazol-6-yl)-N-[4-(4-(4-morpholinyl)phenyl]imidazo[1,2-A]pyrazin-8-amine) methanesulfonate” (Crystal Pharmatech Co., Ltd., priority 2016, dated 2019).
In brackets after ≈: the same amount, converted by molar mass.

Columns and labels:
[1] = Hygroscopicity by dynamic vapor sorption (DVS); type: physicochemical; details: for Weight gain 10% RH / Weight gain 20% RH / Weight gain 30% RH / Weight gain 40% RH / Weight gain 50% RH / Weight gain 60% RH: DVS 0-95%-0 RH cycle at 25° C.
Description: Dynamic Vapor Sorption (DVS) is measured via a SMS (Surface Measurement Systems Ltd.) intrinsic DVS. Its control software is DVS-Intrinsic control software, and its analysis software is DVS-Intrinsic Analsis software. Typical Parameters for DVS test are as follows:
Gas and flow rate: N2, 200 mL/min
RH range: 0% RH to 95% RH
Hygroscopicity of form III was measured in dynamic vapor sorption (DVS) instrument using 7.34 mg of form III obtained from example 6. The DVS plot is shown in FIG. 20, and the weight gain of form III at 80% RH is 6.48%.
6.5 mg of prior form 7 was placed in a DVS instrument, and subjected to a cycle of 0-95%-0RH at 25° C., the DVS plot is shown in FIG. 23.
9.2 mg of Form I was placed in a DVS instrument, and subjected to a cycle of 0-95%-0RH at 25° C., the DVS plot is shown in FIG. 24.
3.6 mg of Form II was placed in a DVS instrument and subjected to a cycle of 0-95%-0RH at 25° C., the DVS plot is shown in FIG. 25.

[2] = Particle size distribution (PSD), laser particle size analyzer, wet process; type: physicochemical; details: dispersion medium Isopar G
Description: The particle size distribution test in the present disclosure is acquired by the S3500 laser particle size analyzer of Microtrac. Microtrac S3500 is equipped with the Sample Delivery Controller. The test is carried out by wet process, and the dispersion medium is Isopar G. The parameters are as follow:
D10: The D10 describes the diameter where 10% of the distribution has a smaller particle size.
D50: The D50 describes the diameter where 50% of the distribution has a smaller particle size. The median is also called D50.
D90: The D90 describes the diameter where 90% of the distribution has a smaller particle size. Unless otherwise specified, the following examples were conducted at room temperature.

[3] = Solubility of saturated solutions in acetone and tetrahydrofuran by HPLC; details: saturated solution, after 24 hours
[4] = Storage stability (purity and XRPD crystalline form after storage); type: physicochemical
Description: Form II obtained from example 3 was stored under 25° C./60% RH for 90 days. XRPD patterns were collected before and after stored for 15 days, 30 days and 90 days.
Form III was stored under 25° C./60% RH and 40° C./75% RH for 300 days. XRPD patterns were collected after stored for 15 days, 30 days and 300 days.

[5] = Slurry/stirring in H2O/IPA solvent systems with different water activities, final form by XRPD; type: physicochemical; details: 6 days
Description: Prior form 7 as starting material was stirred at room temperature in solvent systems with different water activities for 6 days, and tested.
Prior form 3 was stirred at room temperature in solvent systems with different water activities for 4 days, then the solid was tested.

[6] = cited from earlier work
[7] = listed as Form I of the present disclosure
[8] = listed as Form II of the present disclosure

c1cn2cc(-c3ccc4cn[nH]c4c3)nc(Nc3ccc(N4CCOCC4)cc3)c2n1 [Form I, 6-(1H-indazol-6-yl)-N-[4-(4-morpholinyl)phenyl] imidazo [1,2-a]pyrazin-8-amine]
Weight gain 10% RH [1, 7]: 0.69% | Weight gain 20% RH [1, 7]: 0.99% | Weight gain 30% RH [1, 7]: 1.33% | Weight gain 40% RH [1, 7]: 1.82% | Weight gain 50% RH [1]: 2.82% | Weight gain 60% RH [1, 7]: 8.13% | D(10) [2, 7]: 10.23 μm | D(50) [2, 7]: 62.54 μm | D(90) [2, 7]: 240.0 μm | Solubility ([3]; Acetone): 61 µg/mL (≈ 148 µM) | Solubility ([3]; Tetrahydrofuran): 48 µg/mL (≈ 117 µM)

c1cn2cc(-c3ccc4cn[nH]c4c3)nc(Nc3ccc(N4CCOCC4)cc3)c2n1 [Form II, 6-(1H-indazol-6-yl)-N-[4-(4-morpholinyl)phenyl] imidazo [1,2-a]pyrazin-8-amine]
Weight gain 10% RH [1, 8]: 1.41% | Weight gain 20% RH [1, 8]: 1.98% | Weight gain 30% RH [1, 8]: 2.34% | Weight gain 40% RH [1, 8]: 2.65% | Weight gain 50% RH [1, 8]: 2.95% | Weight gain 60% RH [1, 8]: 3.35% | weight gain at 0-70% RH (in words) ([1]; DVS at 25° C., 0-70% RH): doesn't show obvious weight gain | Crystalline form after storage ([4]; 25° C./60%RH, 15 days): Form II | Purity % ([4]; 25° C./60%RH, 15 days): 99.50% | Crystalline form after storage ([4]; 25° C./60%RH, 30 days): Form II | Purity % ([4]; 25° C./60%RH, 30 days): 99.78% | Crystalline form after storage ([4]; 25° C./60%RH, 90 days): Form II | Purity % ([4]; 25° C./60%RH, 90 days): 99.52% | Crystalline form after storage ([4]; 25° C./60%RH, initial): Form II | Purity % ([4]; 25° C./60%RH, initial): 99.64% | D(10) [2, 8]: 4.15 μm | D(50) [2, 8]: 27.48 μm | D(90) [2, 8]: 128.7 μm | Solubility ([3]; Acetone): 26 µg/mL (≈ 63.2 µM) | Solubility ([3]; Tetrahydrofuran): 18 µg/mL (≈ 43.7 µM)

c1cn2cc(-c3ccc4cn[nH]c4c3)nc(Nc3ccc(N4CCOCC4)cc3)c2n1 [Form III, 6-(1H-indazol-6-yl)-N-[4-(4-morpholinyl)phenyl] imidazo [1,2-a]pyrazin-8-amine]
weight gain at 80% RH ([1]; DVS, 25° C., 80% RH): 6.48% | crystalline form after DVS test (XRPD) ([1]; solid collected after DVS): doesn't change | Crystalline form after storage ([4]; 25° C./60%RH, 15 days): Form III | Purity % ([4]; 25° C./60%RH, 15 days): 99.71% | Crystalline form after storage ([4]; 25° C./60%RH, 30 days): Form III | Purity % ([4]; 25° C./60%RH, 30 days): 99.78% | Crystalline form after storage ([4]; 25° C./60%RH, 300 days): Form III | Purity % ([4]; 25° C./60%RH, 300 days): 99.56% | Crystalline form after storage ([4]; 25° C./60%RH, initial): Form III | Purity % ([4]; 25° C./60%RH, initial): 99.82% | Crystalline form after storage ([4]; 40° C./75%RH, 15 days): Form III | Purity % ([4]; 40° C./75%RH, 15 days): 99.68% | Crystalline form after storage ([4]; 40° C./75%RH, 30 days): Form III | Purity % ([4]; 40° C./75%RH, 30 days): 99.73% | Crystalline form after storage ([4]; 40° C./75%RH, 300 days): Form III | Purity % ([4]; 40° C./75%RH, 300 days): 99.47% | Crystalline form after storage ([4]; 40° C./75%RH, initial): Form III | Purity % ([4]; 40° C./75%RH, initial): 99.82%

CS(=O)(=O)O.CS(=O)(=O)O.c1cn2cc(-c3ccc4cn[nH]c4c3)nc(Nc3ccc(N4CCOCC4)cc3)c2n1 [Prior form 7, reference compound]
Weight gain 10% RH [1]: 1.68% | Weight gain 20% RH [1]: 2.78% | Weight gain 30% RH [1]: 4.61% | Weight gain 40% RH [1]: 10.04% | Weight gain 40% RH ([1]; listed as prior form 7): 10% | Weight gain 50% RH [1]: 11.00% | Weight gain 60% RH [1]: 11.83% | Final crystalline form ([5]; H2O/IPA = 1:99, water activity 0.12, room temperature): Form III of the present | Final crystalline form ([5]; H2O/IPA = 3:97, water activity 0.3, room temperature): Form III of the present | Final crystalline form ([5]; H2O/IPA = 6:94, water activity 0.5, room temperature): Form III of the present | Final crystalline form ([5]; H2O/IPA = 11:89, water activity 0.7, room temperature): Form III of the present | Final crystalline form ([5]; H2O/IPA = 23:77, water activity 0.9, room temperature): Form III of the present | Final crystalline form in all experiments ([5]; all water activities, room temperature): converted to form III | D(10) [2]: 3.41 μm | D(50) [2]: 9.37 μm | D(90) [2]: 37.69 μm | weight gain at 80% RH (prior crystalline forms) ([6]; 80% RH): ~20% | hygroscopicity under various humidity conditions ([6]; various humidity conditions): very high
